Test results reported in PubChem BioAssay (NCI).
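Five concentrations, 48 hours, 96-well plates. At the TGI there is no net growth.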

Legend:
Experiment in all cases: NCI anticancer screen, dose series, 48 h
SW-620 colon = test system: SW-620 colon
HCT-116 colon = test system: HCT-116 colon
NCI/ADR-RES ovarian = test system: NCI/ADR-RES ovarian
HL-60(TB) leukemia = test system: HL-60(TB) leukemia
OVCAR-3 ovarian = test system: OVCAR-3 ovarian
HT29 colon = test system: HT29 colon
OVCAR-4 ovarian = test system: OVCAR-4 ovarian
U251 CNS = test system: U251 CNS
HS 578T breast = test system: HS 578T breast
MCF7 breast = test system: MCF7 breast
SK-MEL-5 melanoma = test system: SK-MEL-5 melanoma
IGROV1 ovarian = test system: IGROV1 ovarian
PC-3 prostate = test system: PC-3 prostate
EKVX NSCLC = test system: EKVX NSCLC
SF-295 CNS = test system: SF-295 CNS
SNB-75 CNS = test system: SNB-75 CNS
UACC-62 melanoma = test system: UACC-62 melanoma
T-47D breast = test system: T-47D breast
HOP-62 NSCLC = test system: HOP-62 NSCLC
LOX IMVI melanoma = test system: LOX IMVI melanoma
SK-OV-3 ovarian = test system: SK-OV-3 ovarian
NCI-H522 lung = test system: NCI-H522 lung
RPMI-8226 leukemia = test system: RPMI-8226 leukemia
OVCAR-5 ovarian = test system: OVCAR-5 ovarian
MALME-3M melanoma = test system: MALME-3M melanoma
MDA-MB-231 breast = test system: MDA-MB-231 breast
TK-10 renal = test system: TK-10 renal
SK-MEL-2 melanoma = test system: SK-MEL-2 melanoma
HOP-92 NSCLC = test system: HOP-92 NSCLC
UO-31 renal = test system: UO-31 renal
CAKI-1 renal = test system: CAKI-1 renal
SNB-19 CNS = test system: SNB-19 CNS
MOLT-4 leukemia = test system: MOLT-4 leukemia
NCI-H23 lung = test system: NCI-H23 lung
SR leukemia = test system: SR leukemia
SF-268 CNS = test system: SF-268 CNS
UACC-257 melanoma = test system: UACC-257 melanoma
K-562 leukemia = test system: K-562 leukemia
DU-145 prostate = test system: DU-145 prostate
SK-MEL-28 melanoma = test system: SK-MEL-28 melanoma
SN12C renal = test system: SN12C renal
MDA-MB-435 = test system: MDA-MB-435
SF-539 CNS = test system: SF-539 CNS
A549 NSCLC = test system: A549 NSCLC
KM12 colon = test system: KM12 colon
A498 renal = test system: A498 renal
OVCAR-8 ovarian = test system: OVCAR-8 ovarian
MDA-N = test system: MDA-N
ACHN renal = test system: ACHN renal
RXF 393 renal = test system: RXF 393 renal
HCT-15 colon = test system: HCT-15 colon
BT-549 breast = test system: BT-549 breast
COLO 205 colon = test system: COLO 205 colon
M14 melanoma = test system: M14 melanoma
NCI-H460 lung = test system: NCI-H460 lung
NCI-H226 lung = test system: NCI-H226 lung
786-0 renal = test system: 786-0 renal
CCRF-CEM leukemia = test system: CCRF-CEM leukemia
HCC-2998 colon = test system: HCC-2998 colon

SMILES: Cn1c(-c2ccccc2)c2cc3nc4ccccc4nc3cc2c1-c1ccccc1
- TGI (SW-620 colon): 92.5 µM
- TGI (HCT-116 colon): > 100 µM
- TGI (NCI/ADR-RES ovarian): > 100 µM
- TGI (HL-60(TB) leukemia): 52.6 µM
- TGI (OVCAR-3 ovarian): > 100 µM
- TGI (HT29 colon): > 100 µM
- TGI (OVCAR-4 ovarian): > 100 µM
- TGI (U251 CNS): > 100 µM
- TGI (HS 578T breast): 45.9 µM
- TGI (MCF7 breast): 47.2 µM
- TGI (SK-MEL-5 melanoma): 9.71 µM
- TGI (IGROV1 ovarian): > 100 µM
- TGI (PC-3 prostate): 70.4 µM
- TGI (EKVX NSCLC): > 100 µM
- TGI (SF-295 CNS): 89.8 µM
- TGI (SNB-75 CNS): > 100 µM
- TGI (UACC-62 melanoma): 30.2 µM
- TGI (T-47D breast): > 100 µM
- TGI (HOP-62 NSCLC): 35.9 µM
- TGI (LOX IMVI melanoma): 65 µM
- TGI (SK-OV-3 ovarian): 64.9 µM
- TGI (NCI-H522 lung): 40.3 µM
- TGI (RPMI-8226 leukemia): 30.1 µM
- TGI (OVCAR-5 ovarian): > 100 µM
- TGI (MALME-3M melanoma): 78.7 µM
- TGI (MDA-MB-231 breast): > 100 µM
- TGI (TK-10 renal): > 100 µM
- TGI (SK-MEL-2 melanoma): 60.3 µM
- TGI (HOP-92 NSCLC): 94.2 µM
- TGI (UO-31 renal): > 100 µM
- TGI (CAKI-1 renal): > 100 µM
- TGI (SNB-19 CNS): > 100 µM
- TGI (MOLT-4 leukemia): 64.6 µM
- TGI (NCI-H23 lung): 44.1 µM
- TGI (SR leukemia): 24.2 µM
- TGI (SF-268 CNS): 86.9 µM
- TGI (UACC-257 melanoma): > 100 µM
- TGI (K-562 leukemia): 82.6 µM
- TGI (DU-145 prostate): > 100 µM
- TGI (SK-MEL-28 melanoma): > 100 µM
- TGI (SN12C renal): 51.3 µM
- TGI (MDA-MB-435): 77.4 µM
- TGI (SF-539 CNS): 41.2 µM
- TGI (A549 NSCLC): > 100 µM
- TGI (KM12 colon): 72.1 µM
- TGI (A498 renal): 59.5 µM
- TGI (OVCAR-8 ovarian): > 100 µM
- TGI (MDA-N): 38.9 µM
- TGI (ACHN renal): 83.3 µM
- TGI (RXF 393 renal): 54.4 µM
- TGI (HCT-15 colon): 53.4 µM
- TGI (BT-549 breast): 80.8 µM
- TGI (COLO 205 colon): 9.09 µM
- TGI (M14 melanoma): 31.3 µM
- TGI (NCI-H460 lung): 25.2 µM

SMILES: Cc1[nH]c(-c2ccccc2)c(O)c1C(=O)OC12CC3CC(CC(C3)C1)C2
- TGI (SW-620 colon): 29.7 µM
- TGI (HCT-116 colon): 30.4 µM
- TGI (NCI/ADR-RES ovarian): 27.3 µM
- TGI (HL-60(TB) leukemia): > 100 µM
- TGI (OVCAR-3 ovarian): 27.8 µM
- TGI (HT29 colon): 17.2 µM
- TGI (OVCAR-4 ovarian): 34.4 µM
- TGI (U251 CNS): 28.2 µM
- TGI (NCI-H226 lung): 27.1 µM
- TGI (HS 578T breast): 25.9 µM
- TGI (MCF7 breast): 28 µM
- TGI (SK-MEL-5 melanoma): 28 µM
- TGI (IGROV1 ovarian): 27.4 µM
- TGI (PC-3 prostate): 28.9 µM
- TGI (EKVX NSCLC): 27 µM
- TGI (SF-295 CNS): 14.1 µM
- TGI (SNB-75 CNS): 23.1 µM
- TGI (UACC-62 melanoma): 32.8 µM
- TGI (T-47D breast): 29.5 µM
- TGI (HOP-62 NSCLC): 28.1 µM
- TGI (SK-OV-3 ovarian): 28.1 µM
- TGI (NCI-H522 lung): 22.9 µM
- TGI (RPMI-8226 leukemia): > 100 µM
- TGI (786-0 renal): 27 µM
- TGI (OVCAR-5 ovarian): 26.8 µM
- TGI (MALME-3M melanoma): 28 µM
- TGI (MDA-MB-231 breast): 33.1 µM
- TGI (SK-MEL-2 melanoma): 31.3 µM
- TGI (HOP-92 NSCLC): 34.8 µM
- TGI (UO-31 renal): 32.6 µM
- TGI (CAKI-1 renal): 35.4 µM
- TGI (SNB-19 CNS): 28.3 µM
- TGI (MOLT-4 leukemia): 32.3 µM
- TGI (NCI-H23 lung): 31.6 µM
- TGI (SR leukemia): 44 µM
- TGI (SF-268 CNS): 27.2 µM
- TGI (UACC-257 melanoma): 31.2 µM
- TGI (K-562 leukemia): > 100 µM
- TGI (DU-145 prostate): 29.3 µM
- TGI (SK-MEL-28 melanoma): 27.8 µM
- TGI (SN12C renal): 30.1 µM
- TGI (MDA-MB-435): 28.6 µM
- TGI (SF-539 CNS): 23.7 µM
- TGI (A549 NSCLC): 25.7 µM
- TGI (KM12 colon): 19.3 µM
- TGI (A498 renal): 35 µM
- TGI (OVCAR-8 ovarian): 25.8 µM
- TGI (MDA-N): 31.2 µM
- TGI (ACHN renal): 29.7 µM
- TGI (CCRF-CEM leukemia): > 100 µM
- TGI (RXF 393 renal): 20.1 µM
- TGI (HCT-15 colon): 27.4 µM
- TGI (BT-549 breast): 31.8 µM
- TGI (COLO 205 colon): 27 µM
- TGI (M14 melanoma): 24.9 µM
- TGI (NCI-H460 lung): 21.3 µM

SMILES: CN(C)c1ccc(/C=C(\C#N)c2nc(-c3cc4ccccc4oc3=O)cs2)cc1
- TGI (SW-620 colon): > 50 µM
- TGI (HCT-116 colon): > 50 µM
- TGI (HCC-2998 colon): > 50 µM
- TGI (NCI/ADR-RES ovarian): > 50 µM
- TGI (HL-60(TB) leukemia): > 50 µM
- TGI (HT29 colon): > 50 µM
- TGI (OVCAR-4 ovarian): > 50 µM
- TGI (U251 CNS): 44.5 µM
- TGI (NCI-H226 lung): > 50 µM
- TGI (HS 578T breast): > 50 µM
- TGI (MCF7 breast): > 50 µM
- TGI (SK-MEL-5 melanoma): > 50 µM
- TGI (IGROV1 ovarian): > 50 µM
- TGI (PC-3 prostate): > 50 µM
- TGI (EKVX NSCLC): > 50 µM
- TGI (SF-295 CNS): 25.1 µM
- TGI (SNB-75 CNS): 4.21 µM
- TGI (UACC-62 melanoma): 24.3 µM
- TGI (T-47D breast): > 50 µM
- TGI (HOP-62 NSCLC): 15.6 µM
- TGI (LOX IMVI melanoma): > 50 µM
- TGI (SK-OV-3 ovarian): > 50 µM
- TGI (NCI-H522 lung): 31.6 µM
- TGI (RPMI-8226 leukemia): > 50 µM
- TGI (786-0 renal): 21 µM
- TGI (OVCAR-5 ovarian): > 50 µM
- TGI (MALME-3M melanoma): > 50 µM
- TGI (MDA-MB-231 breast): 40.9 µM
- TGI (TK-10 renal): 21.8 µM
- TGI (SK-MEL-2 melanoma): 38.6 µM
- TGI (HOP-92 NSCLC): 16.8 µM
- TGI (UO-31 renal): > 50 µM
- TGI (CAKI-1 renal): > 50 µM
- TGI (SNB-19 CNS): > 50 µM
- TGI (MOLT-4 leukemia): > 50 µM
- TGI (SR leukemia): > 50 µM
- TGI (SF-268 CNS): > 50 µM
- TGI (UACC-257 melanoma): > 50 µM
- TGI (K-562 leukemia): > 50 µM
- TGI (DU-145 prostate): > 50 µM
- TGI (SK-MEL-28 melanoma): > 50 µM
- TGI (SN12C renal): > 50 µM
- TGI (MDA-MB-435): > 50 µM
- TGI (SF-539 CNS): 26.7 µM
- TGI (A549 NSCLC): > 50 µM
- TGI (KM12 colon): > 50 µM
- TGI (OVCAR-8 ovarian): > 50 µM
- TGI (MDA-N): > 50 µM
- TGI (ACHN renal): > 50 µM
- TGI (CCRF-CEM leukemia): > 50 µM
- TGI (RXF 393 renal): > 50 µM
- TGI (HCT-15 colon): > 50 µM
- TGI (BT-549 breast): 8.16 µM
- TGI (COLO 205 colon): > 50 µM
- TGI (M14 melanoma): > 50 µM
- TGI (NCI-H460 lung): > 50 µM
